From patent US6713276B2, “Modulation of Aβ levels by β-secretase BACE2” (Scios, Inc., priority 2000, dated 2004) come the findings set out here.

The test system of series [1] is CT100 (C-terminal 100 amino acids of APP) processing in HEK293T cells. Description: co-transfection with CT100 in HEK293T cells, ELISA, Western blot, pulse-chase. It counts as cell-based, human. The note with it: HEK293T, co-transfected with CT100. The protocol: (§1) Expression vectors containing BACE and BACE2 cDNAs were transfected into HEK293T cells in the presence of APP751sw or CT100 (Shoji et al., Science 258: 126-129 [1992]; Lichtenthaler et al., Proc. Natl. Acad. Sci. USA 96: 3053-3058 [1999]). Transfections were performed in 24 well plates using Lipofectamine Plus (Gibco/BRL, Bethesda, Md.) and DNA concentrations were kept constant by including non-specific DNA. Expression plasmids were tested for BACE and BACE2 expression by Western blotting. Cell culture supernatants were collected 48 hours and 72 hours post-transfection, and assayed for α-NTF, β-NTF and Aβ formation. β-NTF measurement was performed as described below. α-NTF was captured like β-NTF but was detected with biotinylated 2H3 (Johnson-Wood et al., Proc. Nati. Acad. Sci. USA 94: 1550-1555 [1997]). Aβ levels were determined by an ELISA using monoclonal antibodies 266 for capture and biotinylated 3D6 for detection (see Johnson-Wood et al., [1997] ibid for antibody epitope description). Aβ42, in contrast, was captured using 21F 12 and detected with biotinylated 3D6. […]
This effect prompted investigation into whether β-secretase cleavage was required for Aβ suppression. The effects of BACE2 on the metabolism of the C-terminal 100 amino acids of APP (CT100), a construct that mimics prior β-secretase cleavage (Shoji et al., Science 258: 126-129 [1992]), was analyzed. […]

For series [2], the system named is APP751sw processing in SK-N-MC cells. Briefly: co-transfection with APP751sw in SK-N-MC neuroblastoma cells, ELISA of conditioned medium. It counts as cell-based, human. To be noted: co-transfected with APP751sw. The protocol:
as §1
We further assessed the modulatory effect of BACE2 on Aβ formation using a human neuroblastoma cell line, SK-N-MC.

Series [3] has as its system APP751sw processing in HEK293T cells. Description: co-transfection with APP751sw in HEK293T cells, ELISA of conditioned medium. Format: cell-based, human. The note with it: co-transfected with APP751sw. The protocol:
as §1, with “3D6. Cell extracts prepared 72 hour post-transfection were separated by SDS-PAGE (Novex) and probed with CT695 (Zymed) for APP and CTFs as well as with an Aβ specific monoclonal antibody WO2 (kindly provided by K. Beyreuther; Ida et al., J. Biol. Chem. 271: 22908-22914 [1996]).” for “3D6.”
Given the ability of BACE2 to cleave APP at the β-secretase site in vitro, we investigated the role of BACE2 in HEK293T cells relative to BACE. […] Cell supernatants were collected 48 hours or 72 hours post-transfection and analyzed for α-NTF, β-NTF, total Aβ and Aβ42 as described in Genenral Methodology. […]
In an independent experiment, we addressed whether BACE2 competed with the ability of BACE to cleave APP at the β-secretase site. HEK293T cells were co-transfected with constant amounts of APP751sw and BACE, and increasing levels of BACE2. β-NTF and Aβ levels were then measured in culture supernatant (FIG. 3). […]

For series [4] the test system is unchanged. Description: pulse-chase / pulse-labeling and immunoprecipitation of APP CTFs, Aβ and p3 in HEK293T cells. Format: cell-based, human. The note with it: HEK293T, APP751sw, 15 min pulse, chase up to 90 minutes. The protocol: Forty eight hours post-transfection, HEK293T cells were labeled for 15 minutes with 200 μCi Promix L [^35S] in vitro cell labeling mix (Amersham) and chased for up to 90 minutes according to standard procedures. APP CTFs were immunoprecipitated with antibodies 369 (Cai et al., Science 259: 514-516 [1993]). For immunoprecipitations of Aβ and p3 from conditioned medium, HEK293T cells were labeled for 5 hours with 300 μCi Promix L [^35S] in vitro cell labeling mix (Amersham) 48 hours post-transfection. Aβ40 and Aβ42 as well as the corresponding p3 species were immunoprecipitated with monoclonal antibodies 1702.1 and 108.1, respectively (Higaki et al., J. Med. Chem. 42: 3889-3898 [1999]).
To analyze the metabolism of APP as a consequence of BACE or BACE2 overexpression we performed a parallel pulse-chase experiment (FIG. 2e). HEK293T cells transfected as above were pulse-labeled and chased for up to 90 minutes and APP and CTFs were immunoprecipitated. […] An alternative β-secretase related cleavage product (β′-CTF) was also formed consistent with previous reports (Vassar et al., Science [1999] ibid; Higaki et al., Neuron 14: 651-659 [1995]). Consistent with its β-secretase activity, BACE2 overexpression led to a significant initial increase in β-CTF levels compared to mock-transfected cells. […] To determine whether BACE affected γ-secretase activity, we determined whether p3 could be formed. […]

For the next series, the system named is APP751sw. Description: cell-free β-secretase assay, β-NTF ELISA, APP751sw substrate. It counts as biochemical, human. The note with it: membrane extracts of transfected HEK293 cells, pH 4.5, 37° C. The protocol:
The β-secretase assay consists of two different parts, an incubation or reaction phase to generate β-NTF and an ELISA part to capture and measure the β-NTF generated by β-secretase. The β-secretase ELISA was performed as follows. Each well of a 96 well plate containing a flat bottom (high protein binding, Corning, N.Y.) was coated with 100 μl of the monoclonal capture antibody 8E5 (at ˜8-10 μg/ml) (Johnson-Wood et al. Proc. Natl. Acad. Sci. USA 94: 1550-1555 [1997]). The plate was then covered with parafilm and incubated overnight at 4° C. or alternatively for 2 hours at 37° C. […]
One hundred μl of a 1:5000 dilution of a goat anti rabbit IgG-HRP in Antibody-Conjugate Buffer was then added to each well, and the plate incubated at room temperature for one hour. […] After sufficient blue color had developed, the reactions were stopped by adding 100 μl of 5N H2SO4 to each well, and the amount of βNTF was determined by reading the plate at 450 nm in a Softmax spectrophotometer.
Equal amounts of membrane extracts from either mock, BACE or BACE2 transfected HEK293 cells were incubated with partially purified full length APP751 sw or APP751wt for the indicated times. The formation of β-NTF was then determined using the respective β-NTF specific ELISA as described in General Methodology.

For “BACE: β-site APP-cleaving enzyme, membrane-bound aspartyl protease, cloned from human brain cDNAs and overexpressed”, the “total Aβ and Aβ42 levels in conditioned medium” value in series [1] is on record as “did not affect the levels of Aβ”. Also, in series [2], the “Aβ in conditioned medium” value was “very pronounced increase in both β-NTF and Aβ”; the “β-NTF in conditioned medium” value was “very pronounced increase in both β-NTF and Aβ”. Besides, in series [3], the “total Aβ in conditioned medium” value is recorded as “Aβ production was not significantly stimulated” and the “α-NTF levels in conditioned medium” value is given as “α-NTF levels were proportionally reduced”. Also, in series [3] (APP751sw alone ~2.59), the “total OD of α-NTF plus β-NTF” value is recorded as roughly 2.3 OD. The “APP CTF turnover (β-CTF, β′-CTF, α-CTF)” value in series [4] was “accumulation of β-CTF”. In the series on APP751sw, the “β-NTF formation (β-secretase cleavage in vitro)” value was “time-dependent increase in β-NTF formation”.
